Experiments:
[1] = molecular target: T1, recombinant human DHODH (full-length wild-type) (Homo sapiens, UniProt Q02127); experiment: In vitro DHODH enzyme activity assay; format: biochemical; details: for IC50: 0.1 mM QD, mean ± SD (n = 4–6); for Ki: assuming pure competitive inhibition
T1 construct: The generation of recombinant enzymes (full-length wild-type); made in house
Procedure: The assays to determine the inhibition constants of inhibitors of the recombinant DHODH enzymes are described in [28, 29].
The IC50 values were determined by fitting the equation V = V max/(1 + (I/IC50)^h) to the assay data using SigmaPlot14 (Systat Software Inc.). In this equation, V represents the measured enzyme activity, while V max indicates the maximum enzyme activity reached. I denotes the inhibitor concentration, and h describes the slope of the fitted curve.

colorectal cancer cells [2] = experiment: Western blot; format: cell-based, human
Procedure: Cancer cells (2.2 × 10^6) were cultured in 100-mm Petri dishes and treated with DMSO or NK-A 17E-233I (25 µM) for 48 h. Cells were harvested by scrapping into 2 × Laemmli buffer (4% SDS, 20% glycerol, 125 mM Tris–HCl, pH 6.8) and heated at 100 °C for 5 min. A 4 × Laemmli sample buffer containing β-mercaptoethanol was added to the cell lysates. The proteins were separated using sodium dodecyl sulfate polyacrylamide gel electrophoresis (SDS-PAGE) and subsequently transferred to polyvinylidene fluoride (PVDF) membranes (#88518; Thermo Fisher Scientific) following the manufacturer’s protocols. The membranes were blocked at room temperature for 1 h with 5% dried skimmed milk in Tris-buffered saline with Tween-20 (TBS-T) (20 mM Tris–HCl, pH 7.5, 150 mM NaCl, 0.1% Tween-20), and the blots were incubated with the corresponding antibodies at a dilution of 1:1000–1:3000 in a blocking buffer at 4 °C overnight.
Primary antibodies utilized in this study included: anti-human DHODH (#SC-166348; Santa Cruz), anti–CHK1-pS345 (#2348; Cell Signaling), anti-POLD2 (#29765–1-AP; Proteintech), anti-POLD1 (#15646–1-AP; Proteintech), anti-p53 (#SC-126; Santa Cruz), anti-KRAS, clone 4F3 (#SAB1404011; Sigma-Aldrich), anti-GAPDH (#ab9489; Abcam), anti–α-tubulin (#T9026; Sigma-Aldrich), anti-BAX (#SC-23959; Santa Cruz), anti-cytochrome c (#66264–1-IG; Proteintech), anti-DR5 (#3696; Cell Signaling, dilution 1:500), anti–caspase-8 (#SC-56070; Santa Cruz), and anti–caspase-3 (#9662; Cell Signaling, dilution 1:500). The membranes were incubated at room temperature for 1 h with secondary antibodies (diluted 1:3000–5000), either anti-rabbit (#A0545; Sigma-Aldrich) or anti-mouse IgG-horseradish peroxidase-conjugated (#A9044; Sigma-Aldrich), in TBS-T. The images were analyzed and quantified using ImageStudio software (LI-COR) or ImageQuant 10.2 TL analysis software (Cytiva Life Sciences).

colorectal cancer cells [3] = experiment: Live-cell imaging; format: cell-based, human; details: 25 µM, 24 h time-lapse
Procedure: Following staining, cells were treated with either DMSO or NK-A 17E-233I (25 µM) and subjected to time-lapse imaging for another 24 h, with an acquisition time of 1 h between frames. Cells were maintained at 37 °C with 5% CO2 and 95% humidity using Okolab chambers and monitored with a Leica DMi8 microscope equipped with a Leica DFC9000GT camera. Images were captured in brightfield and at 405 nm to visualize the nuclei using a 20X objective (HC PL FLUOTAR 20x/0.75). Images were processed using Leica Application Suite X (LAS X) Life Science Microscope Software (v3.5.5.19976, RRID:SCR_013673).

SW620 cells [4] = experiment: Complex I- and complex II-dependent respiration (permeabilized cells); format: cell-based, human; details: 25 µM, 24 h
Procedure: Following treatment, cells were detached using trypsin–EDTA, washed with PBS, and resuspended in MiR05 media (composed of 110 mM sucrose, 60 mM potassium-lactobionate, 0.5 mM EGTA, 3 mM MgCl2·6H2O, 20 mM taurine, 10 mM KH2PO4, 20 mM HEPES adjusted to pH 7.1 with KOH at 37 °C, and 1 g/L BSA) at a concentration of 5 × 10^5 cells/mL. The cells were then transferred into 2 mL Oxygraph chambers for real-time measurement of OCR. Initial permeabilization was achieved using 7 μg of digitonin, followed by the sequential addition of substrates and inhibitors: 5 mM ADP, 2 mM malate, 10 μM cytochrome c, 5 mM pyruvate, 10 mM glutamate, 10 mM succinate, 0.5 μM rotenone, and 2.5 μM antimycin A. Mitochondrial membrane integrity was confirmed through the addition of cytochrome c (10 μM), with observed changes in OCR remaining below 10%. Complex I-mediated respiration was evaluated following the addition of complex I substrates (malate/pyruvate/glutamate), while complex II-mediated respiration was assessed in the presence of the complex II substrate (succinate) and the complex I inhibitor (rotenone). Residual oxygen consumption after the addition of antimycin A was subtracted from all the results to yield mitochondria-specific rates. […] Oxygen consumption rates were expressed as picomoles (pmol) per second per million cells (Mill) and normalized to the mitochondrial copy number in each sample.

SW620 cells [5] = experiment: DHODH-dependent respiration (permeabilized cells); format: cell-based, human; details: 24 h; NK-A 17E-233I 25 µM, Brequinar 100 µM; excess exogenous DHO
Procedure: Cells were resuspended in MiR05 medium and transferred into the chambers of the Oxygraph-2k instruments. The OCR in digitonin-permeabilized cells was monitored in the presence of the complex I inhibitor (0.5 μM rotenone), 1 mM DHO, 3 mM ADP, 10 μM cytochrome c, and 30 μM Leflunomide. DHODH-mediated respiration was calculated by subtracting the residual respiration rate after the addition of 30 μM Leflunomide from the respiration rate measured in the presence of 0.5 μM rotenone, 1 mM DHO, 3 mM ADP, and 10 μM cytochrome c.

T1 sequence (Q02127 whole entry): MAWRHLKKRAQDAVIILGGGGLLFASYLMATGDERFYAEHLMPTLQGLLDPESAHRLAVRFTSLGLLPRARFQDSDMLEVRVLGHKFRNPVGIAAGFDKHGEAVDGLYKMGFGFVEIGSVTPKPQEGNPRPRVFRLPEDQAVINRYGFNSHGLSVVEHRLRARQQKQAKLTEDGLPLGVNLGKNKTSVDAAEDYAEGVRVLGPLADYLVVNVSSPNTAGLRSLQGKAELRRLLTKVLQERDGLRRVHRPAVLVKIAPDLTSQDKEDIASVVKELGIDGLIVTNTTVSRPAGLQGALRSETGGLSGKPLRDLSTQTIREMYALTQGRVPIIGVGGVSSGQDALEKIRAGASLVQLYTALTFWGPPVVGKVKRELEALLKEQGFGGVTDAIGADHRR

mode of inhibition with respect to DHO [1]: competitive inhibitor
IC50 ([1]; 0.1 mM DHO): 28.9 ± 14.5 µM
IC50 ([1]; 1 mM DHO): 98.3 ± 42.6 µM
fold increase in the IC50 value with increasing concentrations of DHO ([1]; 1 mM vs 0.1 mM DHO): 3.4 fold
Ki ([1]; derived from the IC50 at 0.1 mM DHO): 3.9 µM
Ki ([1]; derived from the IC50 at 1 mM DHO): 1.5 µM
SMILES: COc1cc(C)c(Oc2cc(C)cc(O)c2O)c(O)c1 [NK-A 17E-233I]
expression of wild-type p53 protein (colorectal cancer cells [2]; 25 µM): without influencing the expression
phosphorylation of CHK1 (pS345) (colorectal cancer cells [2]; 25 µM): confirmed the phosphorylation of CHK1
expression levels of DHODH (colorectal cancer cells [2]; 25 µM, 48 h): did not observe a change
levels of apoptotic markers (DR5, caspase-8, Bax, cytochrome c, caspase-3) (colorectal cancer cells [2]; 25 µM, 48 h): increased levels
protein expression levels of POLD1 and POLD2 (colorectal cancer cells [2]; 25 µM, 48 h): reductions
expression of KRAS G13D mutant protein (colorectal cancer cells [2]; HCT116 cells): reduced
levels of p53-mutant protein (colorectal cancer cells [2]; NK-A 17E-233I 25 µM, Brequinar): reduced
expression of KRAS G12V mutant protein (colorectal cancer cells [2]; SW620 cells): reduced
progression through mitosis (G2/M) (colorectal cancer cells [3]): failed to progress through mitosis
OCR supported by complex I and II substrates (SW620 cells [4]): did not alter
DHODH-mediated oxygen consumption rate (SW620 cells [5]): reduced
